Measurements: PubChem BioAssay AID588614 (The Scripps Research Institute Molecular Screening Center, 2011)
Calls of active or inactive are those of the source.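 Rule for the calls: active = Level of the kinase MAPK1 protein lowered or raised by at least 30% versus solvent-only cells; inactive = change under 30% either way.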

What was measured:
[1] = tested on: DLD-1 cells, ERK1/2 western blot, 24 h; experiment: total ERK1/2 protein level change, either direction, late-stage follow-up, counter-screen for KLF5 inhibitor project, DLD1 cells, chemiluminescent western blot, powder samples (AID 588614); settings: measured here: ERK1/2 band fold change vs DMSO; at 10 µM
[2] = molecular target: Mitogen-activated protein kinase 1 (Homo sapiens) (UniProt P28482); experiment: as above; settings: DLD-1 cells, ERK1/2 western blot, 24 h; at 10 µM; stronger effect = higher value
Sequence of Mitogen-activated protein kinase 1 (Homo sapiens) (P28482 whole entry, looked up): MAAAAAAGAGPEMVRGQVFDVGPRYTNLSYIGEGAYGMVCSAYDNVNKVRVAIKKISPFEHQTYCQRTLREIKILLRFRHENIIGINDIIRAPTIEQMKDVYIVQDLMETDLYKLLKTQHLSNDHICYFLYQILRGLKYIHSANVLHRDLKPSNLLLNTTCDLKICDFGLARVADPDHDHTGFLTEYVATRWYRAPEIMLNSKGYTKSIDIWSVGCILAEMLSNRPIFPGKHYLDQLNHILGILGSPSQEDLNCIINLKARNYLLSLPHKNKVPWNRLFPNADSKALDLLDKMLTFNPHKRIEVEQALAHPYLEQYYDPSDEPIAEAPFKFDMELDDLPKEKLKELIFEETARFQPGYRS

| Structure (SMILES) | fold change [1] | inhibition [2] |
| --- | --- | --- |
| CN(C(=O)CNC(=O)/C=C/c1cccc(Cl)c1)C1CCS(=O)(=O)C1 (stereo unspecified) | -1.26 | 20.8% (inactive) |
| CN(C(=O)CNC(=O)/C=C/c1cccc(Cl)c1)C1CCS(=O)(=O)CC1 | -1.27 | 21.5% (inactive) |
| CN(C(=O)COC(=O)/C=C/c1cccc([N+](=O)[O-])c1)C1CCS(=O)(=O)C1 (stereo unspecified) | -1.25 | 19.8% (inactive) |
